In patent US20240254145A1, “SALT FORM AND CRYSTAL FORM OF HETEROCYCLIC SUBSTITUTED PURINONE DERIVATIVE” (ZAI LAB (SHANGHAI) CO., LTD., priority 2021, published 2024):
Values belong to the compound of their own block, whether it stands above or below them.

Columns and labels:
Human DNA-PK = target: T1, Human DNA-PK (Homo sapiens, UniProt P78527); assay: DNA-dependent protein kinase (DNA-PK) inhibitory activity screening assay (Eurofins, HTRF); format: biochemical; conditions: ATP: 10 μM, 50 nM GST-cMyc-p53
T1 construct: purchased Eurofins (Eurofins Pharma Discovery Service; outsourced assay)
Experimental: This experiment was tested in the Eurofins
Human DNA-PK; Mg/ATP; GST-cMyc-p53; EDTA; Ser15 antibody; ATP: 10 μM.
DNA-PK(h) was incubated in assay buffer containing 50 nM GST-cMyc-p53 and Mg/ATP (according to the required concentration). The reaction was initiated by adding the Mg/ATP mixture. After incubation at room temperature for 30 minutes, the reaction was stopped by adding a stop solution containing EDTA. Finally, detection buffer (containing labeled anti-GST monoclonal antibody and europium-labeled anti-phospho Ser15 antibody against phosphorylated p53) was added. The plate was then read in time-resolved fluorescence mode, and the homogeneous time-resolved fluorescence (HTRF) signal was determined according to the formula HTRF=10000×(Em665 nm/Em620 nm).

[1] = Pharmacokinetic evaluation in rat plasma after oral administration; format: in vivo; conditions: 30 mg/kg, SD male rats
Experimental: The test compound was mixed with 0.5% CMC-Na+0.2% (V:V) Tween80 aqueous solution, vortexed, and sonicated to prepare a 3 mg/mL homogeneous suspension. SD male rats were selected, and orally administered with the candidate compound solution at a dose of 30 mg/kg. Whole blood was collected for a certain period of time and prepared into plasma. The drug concentration was analyzed by the LC-MS/MS method, and the pharmacokinetic parameters were calculated using Phoenix WinNonlin software (Pharsight, USA).
Cmax: highest plasma drug concentration after administration; Tmax: time required to reach the peak concentration after administration; T1/2: time required for the plasma drug concentration to decrease by half; Tlast: time at the last detection point; AUC0-last: area under the drug-time curve, which refers to the area enclosed by the plasma drug concentration curve and the time axis.

[2] = system: human lung cancer NCI-H1703 xenograft tumor; assay: In vivo pharmacodynamic study, NCI-H1703 subcutaneous xenograft tumor model; parameters: species or system female BALB/c nude mice; conditions: for Tumor volume (Day 0): Day 0, Mean ± SEM; for Tumor volume (Day 0) / Tumor volume (Day 21) / Tumor weight (Day 21): n = 9; for RTV (Day 21) / T/C (%) (Day 21) / T/Cweight (%) / TGI (%) (Day 21): Day 21; for Tumor volume (Day 21) / Tumor weight (Day 21): Day 21, Mean ± SEM
Experimental: Experimental purpose: To study the in vivo pharmacodynamics of the test compound in the BALB/c nude mouse model with subcutaneous xenograft tumor of human […] NCI-H1703 cells.
Experimental animals: Experimental animals: female BALB/c nude mice, 6 to 8 weeks of age, weighing 18 to 22 grams; supplier: Shanghai Sippr-BK Lab.Animal Co.Ltd.
Human non-small cell lung cancer NCI-H1703 cells were cultured in vitro in RPMI1640 medium with 10% fetal bovine serum, 100 U/mL penicillin, and 100 μg/mL streptomycin, and cultured at 37° C. in a 5% CO2 incubator. Conventional digestion with trypsin-EDTA was performed twice a week for passaging. When the cell saturation was 80% to 90% and the number of cells reached the requirement, and the cells were collected, counted, and seeded.
0.2 mL (5×10^6) NCI-H1703 cells (added with Matrigel, volume ratio of 1:1) were subcutaneously inoculated on the right back of each mouse, and the administration in groups began when the average tumor volume reached about 130 mm^3.
The compound of formula (I) was prepared into 3 mg/mL, 6 mg/mL, and 9 mg/mL suspension solutions with 98.5% water+0.5% HPMC+1% Tween 80.
Tumor diameters were measured with a vernier caliper twice a week. The formula for calculating tumor volume is: V=0.5a×b^2, wherein a and b represent the long and short diameters of the tumor, respectively. The relative tumor volume (RTV) was calculated based on the results of tumor measurement. The calculation formula is RTV=Vt/V0, wherein V0 is the tumor volume measured at the time of group administration (i.e., day 0), and Vt is the tumor volume at one measurement. Data of the same day was taken for TRTV and CRTV.
The tumor inhibitory effect of the compound was evaluated by TGI (%, reflecting the tumor growth inhibition rate) or relative tumor proliferation rate T/C (%):
T/C (%)=TRTV/CRTV×100%, TRTV represents the average RTV of the treatment group, and CRTV represents the average RTV of the negative control group.
TGI (%)=[1−(average tumor volume at the end of administration in a certain treatment group−average tumor volume at the beginning of administration in this treatment group)/(average tumor volume at the end of treatment in the vehicle control group−average tumor volume at the beginning of treatment in the vehicle control group)]×100%.
After the experiment, the tumor weight (TW) was detected and T/Cweight (%) was calculated. The calculation formula is: T/Cweight (%)=TWtreatment/TWvehicle×100%. TWtreatment and TWvehicle represent the tumor weights of the administration group and vehicle control group, respectively.
Statistical analysis was performed using SPSS software based on RTV data at the end of the experiment. […] T-test was used to analyze the comparison between two groups, and one-way ANOVA was used to analyze the comparisons between three or more groups. If the variance was homogeneous (F value had no significant difference), Tukey's method is used for analysis; if the variance was not homogeneous (F value had significant difference), and the Games-Howell method was used for testing. p<0.05 was considered a significant difference.

[3] = Solid-state stability test of crystal form B (XRPD and HPLC purity); format: physicochemical
Experimental: Based on the “Guideline for Stability Testing of Pharmaceutical Ingredients and Formulations” (Chinese Pharmacopoeia 2020 Edition, General Rule 9001), in order to evaluate the solid-state stability of the crystal form B of the compound of formula (II-1), the solid-state stability of the crystal form B was investigated in terms of the influencing factors (high temperature, high humidity, and light) and the conditions of 60° C./75% RH and 40° C./75% RH. The crystal form B was placed at high temperature (60° C., open) and high humidity (25° C./92.5° RH, open) for 10 days respectively, and then placed open under visible and UV light (samples of the shaded control group were placed at the same time and wrapped in tin foil) according to the ICH conditions (total illuminance up to 1,200,000 Lux hrs in visible and 200 W hrs/m^2 in UV), for 1, 2, and 3 months at 60° C./75% RH (open), and for 1, 2, and 3 months at 40° C./75% RH (open).
About 10 mg of this crystal form was accurately weighed and placed in a dry and clean glass vial, spread into a thin layer, and left open under the test conditions of the influence factors and the accelerated conditions. Samples placed under light conditions (visible light 1200000 Lux hrs, UV 200 W hrs/m^2) were in a clear glass vial with full exposure, and samples for XRPD test were placed separately.
After the sample was taken out at the time point, it was covered, sealed with a sealing film, and stored in a −20° C. refrigerator. When preparing the sample, the sample was taken out of the refrigerator and warmed to room temperature, and dissolved with 25 mL of diluent (acetonitrile/water, 1:1, v/v) to obtain a solution with a concentration of approximately 0.5 mg/mL. The solution was analyzed using the liquid chromatography, and the results of the test were compared with the initial test results on day 0.
Preparation of standard solution on day 0: About 12.5 mg of this crystal form was weighed and placed in a 25 mL volumetric flask, dissolved with […], and diluted to the mark.
At the same time, HPLC tests were performed on all stability samples.

[4] = Hygroscopicity study by dynamic vapor sorption (DVS); format: physicochemical; conditions: 25° C. and 80% RH
Experimental: Instrument model: SMS DVS intrinsic dynamic moisture sorption analyzer
Test conditions: a sample (about 10 mg) is taken and placed in the DVS sample tray for testing.
The detailed DVS parameters are as follows:
Equilibrium: dm/dt=0.01%/min
RH (%) test increment: 5% RH
RH (%) test increment range: 0% to 95% to 0%
The evaluation and classifications of hygroscopicity are shown as follows:
Sufficient moisture is absorbed to produce a fluid: Deliquescence; ΔW %≥15%: High hygroscopicity; 15%>ΔW %≥2%: Hygroscopicity; 2%>ΔW %≥0.2%: Slight hygroscopicity; ΔW %<0.2%: No hygroscopicity or almost no hygroscopicity: ΔW % indicates hygroscopic weight gain of the sample at 25±1° C. and 80±2% RH.
The crystal form B of the compound of formula (II-1) (about 10 mg) was taken and placed in the DVS sample tray for testing.

- IC50 (Human DNA-PK): 0.6 nM
- AUC(0-t) ([1]; male, SD, rat, po): 87.4 µM·h
- Cmax ([1]; male, SD, rat, po): 11.1 µM
Compound: Cc1cc2ncnn2cc1Nc1ncc2c(n1)n(N1CC3CCC(C1)O3)c(=O)n2C

- AUC0-last [1]: 83.483 µM·h
- Cmax [1]: 14.6 µM
- T1/2 [1]: 1.59 h
- Tmax [1]: 0.67 h
Compound: Cc1cc2ncnn2cc1Nc1ncc2c(n1)n(N1CC3CCC(C1)O3)c(=O)n2C [Crystal form A of the compound of formula (I)]

The remaining lines, values behind:

Compound: Cc1cc2ncnn2cc1Nc1ncc2c(n1)n(N1CC3CCC(C1)O3)c(=O)n2C [Compound of formula (I)]
- Tumor volume (Day 0) ([2]; 30 mg/kg): 131 ± 10 mm^3
- RTV (Day 21) ([2]; 30 mg/kg): 7.57 ± 0.53
- T/C (%) (Day 21) ([2]; 30 mg/kg): 79.3%
- T/Cweight (%) ([2]; 30 mg/kg): 79.6%
- TGI (%) (Day 21) ([2]; 30 mg/kg): 20.6%
- Tumor volume (Day 21) ([2]; 30 mg/kg): 979 ± 86 mm^3
- Tumor weight (Day 21) ([2]; 30 mg/kg): 1.031 ± 0.095 g
- Tumor volume (Day 0) ([2]; 60 mg/kg): 131 ± 10 mm^3
- RTV (Day 21) ([2]; 60 mg/kg): 3.31 ± 0.51
- T/C (%) (Day 21) ([2]; 60 mg/kg): 34.7%
- T/Cweight (%) ([2]; 60 mg/kg): 36.0%
- TGI (%) (Day 21) ([2]; 60 mg/kg): 72.3%
- Tumor volume (Day 21) ([2]; 60 mg/kg): 427 ± 64 mm^3
- Tumor weight (Day 21) ([2]; 60 mg/kg): 0.467 ± 0.078 g
- Tumor volume (Day 0) ([2]; 90 mg/kg): 130 ± 10 mm^3
- RTV (Day 21) ([2]; 90 mg/kg): 2.64 ± 0.45
- T/C (%) (Day 21) ([2]; 90 mg/kg): 27.7%
- T/Cweight (%) ([2]; 90 mg/kg): 29.2%
- TGI (%) (Day 21) ([2]; 90 mg/kg): 79.4%
- Tumor volume (Day 21) ([2]; 90 mg/kg): 351 ± 64 mm^3
- Tumor weight (Day 21) ([2]; 90 mg/kg): 0.379 ± 0.069 g

Compound: Cc1cc2ncnn2cc1Nc1ncc2c(n1)n(N1CC3CCC(C1)O3)c(=O)n2C [Crystal form B of the compound of formula (II-1)]
- Purity (area %) ([3]; 0 days (initial)): 99.70 area %
- Purity (area %) ([3]; 40° C., relative humidity of 75%, open, one month): 99.77 area %
- Purity (area %) ([3]; 40° C., relative humidity of 75%, open, three months): 99.72 area %
- Purity (area %) ([3]; 40° C., relative humidity of 75%, open, two months): 99.76 area %
- Purity (area %) ([3]; 60° C., relative humidity of 75%, open, one month): 99.76 area %
- Purity (area %) ([3]; 60° C., relative humidity of 75%, open, three months): 99.73 area %
- Purity (area %) ([3]; 60° C., relative humidity of 75%, open, two months): 99.73 area %
- Purity (area %) ([3]; High humidity (25° C., relative humidity of 92.5%, open), 10 days): 99.75 area %
- Purity (area %) ([3]; High temperature (60° C., open), 10 days): 99.71 area %
- Purity (area %) ([3]; Shaded control group, wrapped with tin foil, placed with visible light + UV): 99.75 area %
- Purity (area %) ([3]; Visible light + UV (ICH conditions), 1,200,000 Lux·hrs, 200 W·hrs/m^2): 99.77 area %
- Hygroscopicity classification [4]: slightly hygroscopic
- T1/2 [1]: 4.07 h
- Tmax [1]: 1.33 h

Compound: Cc1cc2ncnn2cc1Nc1ncc2c(n1)n(N1CC3CCC(C1)O3)c(=O)n2C [Crystal form K of the compound of formula (VIII-1)]
- AUC0-last [1]: 127.313 µM·h
- Cmax [1]: 21.7 µM
- T1/2 [1]: 2.42 h
- Tlast [1]: 32.0 h
- Tmax [1]: 1.50 h
